Test results as given in patent publication US12558342B2, “2-[2-({12,12-dimethyl-4-oxo-6-phenyl-3,11-dioxatricyclo[8.4.0.0,2,7]tetradeca-1,5,7,9-tetraen-8-yl}oxy)acetamido]benzamide and derivatives as inhibitor of clock:bmal1 interaction for the treatment of circadian rhythm diseases and disorders” (KOC UNIVERSITESI, priority 2019, dated 2026).

Key:
BMAL1 = molecular target: T1, BMAL1 (Mus musculus, UniProt Q9WTL8); test: LC-MS/MS of pull-down precipitates, BMAL1; assay type: binding; conditions: Competitor 0 μM
T1 construct: expressed in transfected cells; host or cells: HEK 293T
Method: HEK293T cells were transiently transfected with tag-free hsClock and mBmal1. After 48 hours of transfection, cells were harvested and whole cell lysate was prepared with ice-cold lysis buffer (50 mM Tris-HCl pH 7.4, 2 mM EDTA, 1 mM MgCl2, 0.2% NP-40, 1 mM sodium orthovanadate, 1 mM sodium fluoride and protease inhibitor cocktail) followed by centrifugation at 7000×g at 4° C. for 10 minutes. Lysate was diluted with ice-cold 2× binding buffer (100 mM Tris-HCl pH 7.4, 300 mM NaCl, 0.2% NP-40, 2 mM sodium orthovanadate, 2 mM sodium fluoride, and protease inhibitor cocktail) 27. The lysate was divided into three fractions to be treated with either DMSO, or 20 μM of bitoinylated-CLK8 (bait) with or without 200 μM CLK8 (competitor). […]
The next step was to check for off-targets of CLK8. […] Since the amount of precipitated endogenous CLOCK was insufficient to be detected in LC-MS/MS, whole cell lysate of HEK 293T cells overexpressing CLOCK and BMAL1 were used for LC-MS/MS. We determined proteins that potentially bind to CLK8 by utilizing a minimum threshold for peptide spectrum matches and coverage equal to those of the main target, CLOCK. We also excluded proteins that have been detected in negative controls of the CRAPome database (32), assuming them as abundant sticky proteins. […] BMAL1 was detected in lower amounts when a competitor was present. […]

CLOCK:BMAL1 interaction = molecular target: T2, CLOCK:BMAL1 interaction (Homo sapiens, UniProt O15516); test: Mammalian two-hybrid assay; assay type: cell-based; conditions: HEK293T
T2 construct: expressed in transfected cells; host or cells: HEK293T
T2 sequence (O15516 1-846): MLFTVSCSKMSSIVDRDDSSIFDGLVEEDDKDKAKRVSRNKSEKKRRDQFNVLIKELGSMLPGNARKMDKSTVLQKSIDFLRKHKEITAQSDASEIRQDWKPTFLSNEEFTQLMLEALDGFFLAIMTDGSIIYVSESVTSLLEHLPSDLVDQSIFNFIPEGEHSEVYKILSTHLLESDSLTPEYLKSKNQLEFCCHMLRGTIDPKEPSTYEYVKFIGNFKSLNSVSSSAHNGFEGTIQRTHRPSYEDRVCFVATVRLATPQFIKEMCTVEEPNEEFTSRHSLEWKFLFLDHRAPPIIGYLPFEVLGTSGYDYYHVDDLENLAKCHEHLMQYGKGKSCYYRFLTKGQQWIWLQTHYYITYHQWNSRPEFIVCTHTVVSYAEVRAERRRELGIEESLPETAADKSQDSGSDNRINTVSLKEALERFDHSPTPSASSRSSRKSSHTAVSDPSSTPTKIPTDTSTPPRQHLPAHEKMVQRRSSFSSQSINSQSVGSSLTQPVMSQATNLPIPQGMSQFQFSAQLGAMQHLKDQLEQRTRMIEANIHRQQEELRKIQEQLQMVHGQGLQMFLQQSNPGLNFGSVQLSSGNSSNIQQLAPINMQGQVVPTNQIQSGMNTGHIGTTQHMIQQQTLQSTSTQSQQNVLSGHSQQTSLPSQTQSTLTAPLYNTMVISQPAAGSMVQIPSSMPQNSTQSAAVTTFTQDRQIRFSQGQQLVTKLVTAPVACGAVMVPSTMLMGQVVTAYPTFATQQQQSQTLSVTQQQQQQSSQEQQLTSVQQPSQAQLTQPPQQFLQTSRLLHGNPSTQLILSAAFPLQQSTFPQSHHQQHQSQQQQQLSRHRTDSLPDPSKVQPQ
Method: The procedure was carried out according to Checkmate-Promega's protocol. Samples were examined in triplicate sets in a 96-well plate. HEK293T cells with the density of 4×10^4 cell/well were transfected with 50 ng of pG5-luc, 50 ng of pACT-mBmal1, 50 ng of pBind-hsClock plasmids and 0.5 ng of pRL-TK for normalization. Following the transfection, the cells were treated with different concentrations of small molecules. Control cells were treated with 0.5% vehicle (DMSO).
Ultimately, luminescence was measured using Dual-Luciferase Reporter Assay System (Promega) with Fluoroskan Ascent FL plate reader.

[1] = test system: PER2, NPAS2, BMAL1 and CRY1; test: Cytosol-nuclear fractionation of U2OS cells, other clock proteins; assay type: cell-based, human; conditions: 20 μM, two days
Method: U2 OS cells treated with 20 μM CLK8 and 0.5% DMSO were used for fractionation analysis. The 4×10^5 was suspended in 500 ul cytosolic lysis buffer (10 mM HEPES pH 7,9, 10 mM KCl, 0.1 mM EDTA, 0.05% NP40 with protease inhibitors) and incubated on ice for 10 minutes. The lysate was centrifuged for 3 minutes at 3000 rpm at 4° C. The resulting supernatant was centrifuged one more time and supernatant collected as cytosolic fraction. On the other hand, the resulting pellet from lysate centrifugation was suspended in nuclear lysis buffer (20 mM HEPES pH 7.9, 0.4 M NaCl, 1 mM EDTA, 10% glycerol with protease inhibitors) and sonicated 2 times 10 seconds with 60% power. After centrifuge at 15 000 g for 5 minutes at 4° C., supernatant was collected as nuclear fraction. Collected fractions were used for Western Blot analysis. Fractionation efficiency was checked with Western Blot by using tubulin (Sigma T9026) as cytosolic marker and Histone-H3 (abcam ab1791) as nuclear marker.

T1 sequence (Q9WTL8 whole entry): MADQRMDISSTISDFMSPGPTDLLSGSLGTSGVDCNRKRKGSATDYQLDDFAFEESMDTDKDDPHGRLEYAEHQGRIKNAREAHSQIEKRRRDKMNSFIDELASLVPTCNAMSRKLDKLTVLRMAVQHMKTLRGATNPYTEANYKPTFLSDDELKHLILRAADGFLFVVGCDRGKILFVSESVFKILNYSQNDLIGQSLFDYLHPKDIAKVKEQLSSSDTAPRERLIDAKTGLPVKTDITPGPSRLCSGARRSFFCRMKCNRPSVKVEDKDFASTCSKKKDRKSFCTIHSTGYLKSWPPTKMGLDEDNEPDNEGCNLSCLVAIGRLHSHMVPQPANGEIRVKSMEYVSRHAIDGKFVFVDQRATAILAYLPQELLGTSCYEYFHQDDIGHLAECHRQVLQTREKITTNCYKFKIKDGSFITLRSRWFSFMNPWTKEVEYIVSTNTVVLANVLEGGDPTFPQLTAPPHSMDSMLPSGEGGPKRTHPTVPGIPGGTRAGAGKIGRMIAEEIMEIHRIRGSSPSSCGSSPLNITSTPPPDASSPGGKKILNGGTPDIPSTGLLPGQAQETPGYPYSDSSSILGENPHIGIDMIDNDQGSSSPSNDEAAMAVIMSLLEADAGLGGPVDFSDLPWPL

Peptide spectrum matches, BMAL1 (BMAL1): 56
Structure (SMILES): CC1(C)CCc2c(cc(OCC(=O)Nc3ccccc3C(N)=O)c3c(-c4ccccc4)cc(=O)oc23)O1 [CLK8, 2-[2-({12,12-dimethyl-4-oxo-6-phenyl-3,11-dioxatricyclo [8.4.0.0,2,7]tetradeca-1,5,7,9-tetraen-8-yl}oxy)acetamido] benzamide]
interaction between CLOCK and BMAL1 (two-hybrid) (CLOCK:BMAL1 interaction): reduces the interaction between CLOCK and BMAL1 | level of PER2, NPAS2, BMAL1 and CRY1 [1]: comparable to the control samples
